Reference: EP0238060B1, “Cephalosporin derivatives, processes for their preparation and antibacterial agents” (Banyu Pharmaceutical Co., Ltd., priority 1986, dated 1987)
Converted amounts (≈) assume the structure as drawn.

What was measured:
[1] = tested on: Enterobacter cloacae GN 5797; assay: Induction of β-lactamase by β-lactam antibiotics; type: cell-based
Method: The assay method for induction of β-lactamase by β-latam antibiotics was as follows: The test organism, Enterobacter cloacae GN 5797, was grown overnight in Mueller Hinton broth (Dlfco Laboratories, Detroit, Mich.) at 37°C. The culture was diluted l0-fold into 20 ml of the flesh medium and incubated with shaking at 37°C. After 2 hours of incubation, antibiotics were added to final concentrations of 50 µg/ml, l0 µg/ml and l µg/ml, and the incubation was continued. At l hour intervals after the addition of antibiotic, 5 ml of sample was taken, and immediately added with 0.l ml of 50 mM sodium azide. The cells were harvested and washed with 50 mM phosphate buffer (pH 7.0). The cells were suspended in 5 ml of 50 mM phosphate buffer and disrupted with a sonicater in an ice-water bath. The broken cells were centrifuged at l6,500 G for 40 minutes at 4°C, and the resulting supernatant fluid was used as the crude enzyme. β-Lactamase activity was determined by a spectrophotometric method (Antmicrob. Agents Chemother. 17, 355-358, 1980) with cephaloridine as substrate. The concentration of protein was determined by the method of Lowry (J. Biol. Chem. 193, 265-275, 1951).

[2] = tested on: P.vulgaris HX-19; assay: In vitro antibacterial activity, agar plate dilution method (MIC); type: cell-based; conditions: Proteus vulgaris, HX19, 16 h, read-out: Minimum Inhibitory Concentration (MIC: µg/ml)
[3] = tested on: M.luteus ATCC9341; assay: as above; type: cell-based; conditions: Micrococcus luteus, ATCC9341, 16 h, read-out: Minimum Inhibitory Concentration (MIC: µg/ml)
[4] = tested on: S.marcescens No. 16-2; assay: as above; type: cell-based; conditions: Serratia marcescens, NO.162, 16 h, read-out: Minimum Inhibitory Concentration (MIC: µg/ml)
[5] = tested on: A.calcoaceticus No. 4; assay: as above; type: cell-based; conditions: Acinetobacter calcoaceticus, NO.4, 16 h, read-out: Minimum Inhibitory Concentration (MIC: µg/ml)
[6] = tested on: E.coli NIHJ JC2; assay: as above; type: cell-based; conditions: Escherichia coli, NIHJJC2, 16 h, read-out: Minimum Inhibitory Concentration (MIC: µg/ml)
[7] = tested on: S.epidermidis IAM12012; assay: as above; type: cell-based; conditions: Staphylococcus epidermidis, IAM12012, 16 h, read-out: Minimum Inhibitory Concentration (MIC: µg/ml)
[8] = tested on: E.coli CSH2 (RK1); assay: as above; type: cell-based; conditions: Escherichia coli, 16 h, read-out: Minimum Inhibitory Concentration (MIC: µg/ml)
[9] = tested on: M.morganii GN5407; assay: as above; type: cell-based; conditions: Morganella morganii, GN5407, 16 h, read-out: Minimum Inhibitory Concentration (MIC: µg/ml)
[10] = tested on: K.pneumoniae PCI-602; assay: as above; type: cell-based; conditions: Klebsiella pneumoniae, PCI602, 16 h, read-out: Minimum Inhibitory Concentration (MIC: µg/ml)
[11] = tested on: C.freundii GN346/16; assay: as above; type: cell-based; conditions: Citrobacter freundii, GN346, 16 h, read-out: Minimum Inhibitory Concentration (MIC: µg/ml)
[12] = tested on: S.aureus 209P NIHJ-JC1; assay: as above; type: cell-based; conditions: Staphylococcus aureus, 16 h, read-out: Minimum Inhibitory Concentration (MIC: µg/ml)
[13] = tested on: C.freundii GN346; assay: as above; type: cell-based; conditions: Citrobacter freundii, GN346, 16 h, read-out: Minimum Inhibitory Concentration (MIC: µg/ml)
[14] = tested on: Ps.aeruginosa IFO3445; assay: as above; type: cell-based; conditions: Pseudomonas aeruginosa, IFO3445, 16 h, read-out: Minimum Inhibitory Concentration (MIC: µg/ml)
[15] = tested on: K.pneumoniae No. 42; assay: as above; type: cell-based; conditions: Klebsiella pneumoniae, NO.42, 16 h, read-out: Minimum Inhibitory Concentration (MIC: µg/ml)
[16] = tested on: P.vulgaris No. 33; assay: as above; type: cell-based; conditions: Proteus vulgaris, NO.33, 16 h, read-out: Minimum Inhibitory Concentration (MIC: µg/ml)
[17] = tested on: Ps.aeruginosa AKR17; assay: as above; type: cell-based; conditions: Pseudomonas aeruginosa, AKR17, 16 h, read-out: Minimum Inhibitory Concentration (MIC: µg/ml)
[18] = tested on: E.cloacae Nek 39; assay: as above; type: cell-based; conditions: Enterobacter cloacae, NEK39, 16 h, read-out: Minimum Inhibitory Concentration (MIC: µg/ml)
[19] = tested on: E.coli CSH(RE45); assay: as above; type: cell-based; conditions: Escherichia coli, 16 h, read-out: Minimum Inhibitory Concentration (MIC: µg/ml)
[20] = tested on: Ps.aeruginosa AK 109; assay: as above; type: cell-based; conditions: Pseudomonas aeruginosa, AK109, 16 h, read-out: Minimum Inhibitory Concentration (MIC: µg/ml)
[21] = tested on: E.coli GN5482; assay: as above; type: cell-based; conditions: Escherichia coli, GN5482, 16 h, read-out: Minimum Inhibitory Concentration (MIC: µg/ml)
[22] = tested on: S.marcescens IAM 1184; assay: as above; type: cell-based; conditions: Serratia marcescens, IAM1184, 16 h, read-out: Minimum Inhibitory Concentration (MIC: µg/ml)
[23] = tested on: S.aureus BB5703; assay: as above; type: cell-based; conditions: Staphylococcus aureus, BB5703, 16 h, read-out: Minimum Inhibitory Concentration (MIC: µg/ml)
[24] = tested on: S.aureus JS1; assay: as above; type: cell-based; conditions: Staphylococcus aureus, JS1, 16 h, read-out: Minimum Inhibitory Concentration (MIC: µg/ml)
[25] = tested on: K.oxytoca GN10650; assay: as above; type: cell-based; conditions: Klebsiella oxytoca, GN10650, 16 h, read-out: Minimum Inhibitory Concentration (MIC: µg/ml)
[26] = tested on: E.cloacae 963; assay: as above; type: cell-based; conditions: Enterobacter cloacae, 963, 16 h, read-out: Minimum Inhibitory Concentration (MIC: µg/ml)
[27] = tested on: Ps.cepacia 23; assay: as above; type: cell-based, Pseudomonas cepacia; conditions: Burkholderia cepacia, 23, 16 h, read-out: Minimum Inhibitory Concentration (MIC: µg/ml)
[28] = tested on: Ps.maltophilia GN 12873; assay: as above; type: cell-based, Pseudomonas maltophilia; conditions: Stenotrophomonas maltophilia, GN12873, 16 h, read-out: Minimum Inhibitory Concentration (MIC: µg/ml)

For `CC(C)(O/N=C(\C(=O)NC1C(=O)N2C(C(=O)[O-])=C(C[n+]3ccc4cc(O)c(O)cc4c3)CSC12)c1csc(N)n1)C(=O)O` (stereo not drawn) [Ex. 4, 7-[2-(2-aminothiazol-4-yl)-2-(l-carboxy-l-methylethoxyimino)acetamido]-3-(6,7-dihydroxy-2-isoquinolinio)methyl-3-cephem-4-carboxylate], the “Specific activity (unit/mg protein)” value ([1]; induced β-lactamase activity of crude enzyme, Concentration 10 µg/ml, Incubation time 3 hr, Substrate: 100 µM of cephaloridine) was 0.064 unit/mg protein, the β-lactamase inducibility ([1]; measured by Enterobacter cloacae GN 5797) was “no substantial β-lactamase-inducing activity was observed” and the MIC [2] was less than 0.006 µg/mL. It also gave an MIC [3] of 6.25 µg/mL (≈ 9.94 µM), an MIC [4] of 0.2 µg/mL (≈ 0.318 µM) and an MIC [5] of 0.1 µg/mL (≈ 0.159 µM). The MIC [6] was 0.1 µg/mL (≈ 0.159 µM), the MIC [7] was 12.5 µg/mL (≈ 19.9 µM) and the MIC [8] was less than 0.006 µg/mL. For the same molecule, the MIC [9] was 0.05 µg/mL (≈ 0.0795 µM), the MIC [10] was less than 0.006 µg/mL and the MIC [11] was 1.56 µg/mL (≈ 2.48 µM). For the same molecule, the MIC [12] was 25 µg/mL (≈ 39.8 µM), the MIC [13] was 50 µg/mL (≈ 79.5 µM) and the MIC [14] was 0.2 µg/mL (≈ 0.318 µM). It also gave an MIC [15] of 0.025 µg/mL (≈ 0.0398 µM), an MIC [16] of 0.0125 µg/mL (≈ 0.0199 µM) and an MIC [17] of 0.78 µg/mL (≈ 1.24 µM). It also gave an MIC [18] of 0.025 µg/mL (≈ 0.0398 µM), an MIC [19] of 0.39 µg/mL (≈ 0.62 µM) and an MIC [20] of 0.2 µg/mL (≈ 0.318 µM). The MIC [21] was 0.39 µg/mL (≈ 0.62 µM), the MIC [22] was 0.0125 µg/mL (≈ 0.0199 µM) and the MIC [23] was 50 µg/mL (≈ 79.5 µM). For the same molecule, the MIC [24] was 100 µg/mL (≈ 159 µM), the MIC [25] was less than 0.006 µg/mL and the MIC [26] was 0.025 µg/mL (≈ 0.0398 µM). It also gave an MIC [27] of less than 0.006 µg/mL and an MIC [28] of 1.56 µg/mL (≈ 2.48 µM).
